System: muscle progenitors derived from DMD hiPSC
Experiment: Myotube assay: total myotube area per well (alpha-actinin staining)
Assay type: cell-based, human
Details: Homo sapiens, Myotube, 72 h, DMD or WT cell source not given; for Emax: efficacy, MA = normalized Myotube Area, 3 days incubation; for EC50: myogenic activity, half-maximal generation of myotubes, 10 points dose-response 1.5 nM to 30 µM, 3 days
Experimental: An in vitro assay for assessing the efficacy of compounds for use in treating, ameliorating, delaying, curing and/or preventing a disease or condition associated with muscle cells and/or satellite cells is described in example 78. Herein, the generation of myotubes and satellite cells after adding a compound to a myotube assay workflow is assessed. Said myotube assay workflow is derived from wild-type or DMD human induced pluripotent stem cells (WT hiPSC or DMD hiPSC). Before the addition of said compound, the assay comprises satellite-like cells, but no significant amount of myotubes.
The efficacy of said compound for use in treating, ameliorating, delaying, curing and/or preventing a disease or condition associated with muscle cells and/or satellite cells is positively correlated with the generation of myotubes (i.e. the increase of the area occupied by myotubes on the assay) and/or satellite cells (i.e. the increase of the number of satellite cells) in the assay after adding said compound. The generation of myotubes by the addition of said compound is expressed as the EC50 value, the concentration of said compound that corresponds with the half-maximal generation of myotubes, and the MA (normalized myotube area) value, the normalized area occupied by generated myotubes on the assay. […] Since muscle cells are formed from myotubes during myogenesis, the generation of myotubes in the assay is a good indicator of the ability of said compound to induce the formation of functional muscle cells in vivo. The number of satellite cells is measured as the percentage of Pax7 positive cells, relative to the total number of cells in the assay, as shown in Figure 3. The percentage of Pax7 is a good indicator of the ability of said compound to induce the formation of satellite cells which are able to play a role in muscle repair and regeneration in vivo.
DMD human induced pluripotent stem cells (hereafter "DMD hiPSC"), generated from the NCRM-1 hiPSC WT cell line by gene editing, or WT human induced pluripotent stem cells (hereafter "WT hiPSC"), being NCRM-1 hiPSC wt cell line, have been differentiated according to Chal et al. 2015, 2016, to produce muscle progenitors (hereafter "hMP"). The hMP population contains satellite-like cells (i.e Pax7-positive cells) and satellite cells' progenies (i.e. Myogenin-positive cells).
Figure 1 provides an example of a Myotube assay workflow. At day 0, hMP are thawed and 3.1 million cells are plated into a T75-flask coated with hESC-qualified Matrigel™ (Corning) in SkGM proliferating medium (PromoCells), supplemented with 5 µM Y-27632 (Tocris Bioscience). On day 2, SkGM proliferating medium is refreshed. On day 4, hMP are harvested and transferred into a 384-well plate coated with collagen type I at a density of 3500 cells/well in a DMEM-based medium, containing 5% of knockout serum replacement (Gibco), 1% PenStrep (Gibco), 1% MEM NEAA (Gibco) and 0.1 mM 2-mercaptoethanol (Gibco) (hereafter "K5 medium") and 5 µM Y-27632. Compounds to be tested are then added in the medium and incubated for 3 days at 37°C. On day 7, cells are fixed and immunostained. For example, myotubes (alpha-actinin staining) and satellite-like (Pax7 staining) cells can be analyzed for total myotube area per well or Pax7-positive cell quantification.
DMD hMP were put in the Myotube assay according to the workflow described in Example 2.1. In particular, compound (i) was added at concentrations ranging from 1.5 nM to 30 µM, starting from day 4. hMP were cultivated for three more days in presence of compound (i), then fixed and analyzed for quantification of total myotube area per well. Duplicates of each condition were averaged.

SMILES | Emax | EC50
CSc1cc(Oc2ccnc3[nH]c(=O)cnc23)ccc1NC(=O)Nc1cc(C(C)(C)C)nn1-c1ccc(C)c(Cl)c1 [(cl), 1-(3-(tert-butyl)-1-(3-chloro-4-methylphenyl)-1H-pyrazol-5-yl)-3-(2-(methylthio)-4-((3-oxo-3,4-dihydropyrido[2,3-b]pyrazin-8-yl)oxy)phenyl)urea] | ≥ 75% | < 0.5 µM
CC(C)(C)c1nc(NC(=O)Nc2ccc(Oc3ccnc4[nH]c(=O)cnc34)cc2F)n(-c2ccccc2)n1 [(p), 1-(3-(tert-butyl)-1-phenyl-1 H-1,2,4-triazol-5-yl)-3-(2-fluoro-4-((3-oxo-3,4-dihydropyrido[2,3-b]pyrazin-8-yl)oxy)phenyl)urea] | 25 to 50% | 0.5 to 1 µM
CSc1cc(Oc2ccnc3[nH]c(=O)cnc23)ccc1NC(=O)Nc1ncc(C(C)(C)C)s1 [(ah), 1-(5-(tert-butyl)thiazol-2-yl)-3-(2-(methylthio)-4-((3-oxo-3,4-dihydropyrido[2,3-b]pyrazin-8-yl)oxy)phenyl)urea] | ≥ 75% | ≥ 5 µM
CSc1cc(Oc2ccnc3c2CCC(=O)N3)ccc1NC(=O)Nc1ncc(C(C)(C)C)s1 [(cb), 1-(5-(tert-butyl)thiazol-2-yl)-3-(2-(methylthio)-4-((7-oxo-5,6,7,8-tetrahydro-1,8-naphthyridin-4-yl)oxy)phenyl)urea] | ≥ 75% | < 0.5 µM
O=C(Nc1ccc(Oc2ccnc3[nH]c(=O)cnc23)cc1F)Nc1cc(C2(C(F)(F)F)CC2)nn1-c1ccccc1 [(d), 1-(2-fluoro-4-((3-oxo-3,4-dihydropyrido[2,3-b]pyrazin-8-yl)oxy)phenyl)-3-(1-phenyl-3-(1-(trifluoromethyl)cyclopropyl)-1 H-pyrazol-5-yl)urea] | 50 to 75% | 1 to 5 µM
CSc1cc(Oc2ccnc3nccnc23)ccc1NC(=O)Nc1cc(C(C)(C)C)nn1-c1ccccc1 [(bs), 1-(3-(tert-butyl)-1-phenyl-1 H-pyrazol-5-yl)-3-(2-(methylthio)-4-(pyrido[2,3-b]pyrazin-8-yloxy)phenyl)urea] | ≥ 75% | ≥ 5 µM
COc1ccccc1-n1nc(C(C)(C)C)cc1NC(=O)Nc1ccc(Oc2ccnc3[nH]c(=O)cnc23)cc1SC [(av), 1-(3-(tert-butyl)-1-(2-methoxyphenyl)-1H-pyrazol-5-yl)-3-(2-(methylthio)-4-((3-oxo-3,4-dihydropyrido[2,3-b]pyrazin-8-yl)oxy)phenyl)urea] | ≥ 75% | –
CSc1cc(Oc2ncnc3[nH]c(=O)cnc23)ccc1NC(=O)Nc1cc(C(C)(C)C)nn1-c1ccccc1 [(bv), 1-(3-(tert-butyl)-1-phenyl-1H-pyrazol-5-yl)-3-(2-(methylthio)-4-((7-oxo-7,8-dihydropteridin-4-yl)oxy)phenyl)urea] | ≥ 75% | ≥ 5 µM
CC1(c2cc(NC(=O)Nc3ccc(Oc4ccnc5[nH]c(=O)cnc45)cc3F)n(-c3ccccc3)n2)COC1 [(f), 1-(2-fluoro-4-((3-oxo-3,4-dihydropyrido[2,3-b]pyrazin-8-yl)oxy)phenyl)-3-(3-(3-methyloxetan-3-yl)-1-phenyl-1 H-pyrazol-5-yl)urea] | 50 to 75% | ≥ 5 µM
CC(C)(C)c1cc(NC(=O)Nc2ccc(Oc3ccc(F)cc3)cc2F)n(-c2ccccc2)n1 [(af), 1-(3-(tert-butyl)-1-phenyl-1 H-pyrazol-5-yl)-3-(2-fluoro-4-(4-fluorophenoxy)phenyl)urea] | 25 to 50% | 1 to 5 µM
CSc1cc(Oc2ccnc3[nH]c(=O)[nH]c23)ccc1NC(=O)Nc1cc(C(C)(C)C)nn1-c1ccccc1 [(dm), 1-(3-(tert-butyl)-1-phenyl-1H-pyrazol-5-yl)-3-(2-(methylthio)-4-((2-oxo-2,3-dihydro-1H-imidazo[4,5-b]pyridin-7-yl)oxy)phenyl)urea] | ≥ 75% | 1 to 5 µM
CSc1cc(Oc2ccnc3[nH]c(=O)cnc23)ccc1NC(=O)Nc1nnc(C(C)(C)C)s1 [(z), 1-(5-(tert-butyl)-1,3,4-thiadiazol-2-yl)-3-(2-(methylthio)-4-((3-oxo-3,4-dihydropyrido[2,3-b]pyrazin-8-yl)oxy)phenyl)urea] | ≥ 75% | ≥ 5 µM
CC(C)Cc1cc(NC(=O)Nc2ccc(Oc3ccnc4[nH]c(=O)cnc34)cc2F)n(-c2ccccc2)n1 [(g), 1-(2-fluoro-4-((3-oxo-3,4-dihydropyrido[2,3-b]pyrazin-8-yl)oxy)phenyl)-3-(3-isobutyl-1-phenyl-1H-pyrazol-5-yl)urea] | ≥ 75% | 0.5 to 1 µM
CC(C)(C)c1cc(NC(=O)Nc2ccc(Oc3ccnc4[nH]c(=O)cnc34)cc2F)n(CCN2CCOCC2)n1 [(k), 1-(3-(tert-butyl)-1-(2-morpholinoethyl)-1 H-pyrazol-5-yl)-3-(2-fluoro-4-((3-oxo-3,4-dihydropyrido[2,3-b]pyrazin-8-yl)oxy)phenyl)urea] | 50 to 75% | 1 to 5 µM
CC(C)(C)c1cc(NC(=O)Nc2ccc(Oc3ccnc4[nH]c(=O)cnc34)cc2)n(-c2ccccc2)n1 [(s), 1-(3-(tert-butyl)-1-phenyl-1 H-pyrazol-5-yl)-3-(4-((3-oxo-3,4-dihydropyrido[2,3-b]pyrazin-8-yl)oxy)phenyl)urea] | 50 to 75% | 0.5 to 1 µM
CSc1cc(Oc2ccnc3[nH]c(=O)cnc23)ccc1NC(=O)Nc1cc(C(C)(C)C)nn1-c1ccc(OCCCN(C)C)cc1 [(cr), 1-(3-(tert-butyl)-1-(4-(3-(dimethylamino)propoxy)phenyl)-1H-pyrazol-5-yl)-3-(2-(methylthio)-4-((3-oxo-3,4-dihydropyrido[2,3-b]pyrazin-8-yl)oxy)phenyl)urea] | ≥ 75% | < 0.5 µM
CSc1cc(Oc2ccnc3[nH]c(=O)cnc23)ccc1NC(=O)Nc1cc(C(C)(C)C)nn1CCCN1CCOCC1 [(bh), 1-(3-(tert-butyl)-1-(3-morpholinopropyl)-1 H-pyrazol-5-yl)-3-(2-(methylthio)-4-((3-oxo-3,4-dihydropyrido[2,3-b]pyrazin-8-yl)oxy)phenyl)urea] | ≥ 75% | ≥ 5 µM
CSc1cc(Oc2cccc3c2CCC(=O)N3)ccc1NC(=O)Nc1cc(C(C)(C)C)nn1-c1ccccc1 [(ci), 1-(3-(tert-butyl)-1-phenyl-1H-pyrazol-5-yl)-3-(2-(methylthio)-4-((2-oxo-1,2,3,4-tetrahydroquinolin-5-yl)oxy)phenyl)urea] | 25 to 50% | ≥ 5 µM
CSc1cc(Oc2ccnc3[nH]c(=O)cnc23)ccc1NC(=O)Nc1nc(-c2ccc(F)c(F)c2)cs1 [(ax), 1-(4-(3,4-difluorophenyl)thiazol-2-yl)-3-(2-(methylthio)-4-((3-oxo-3,4-dihydropyrido[2,3-b]pyrazin-8-yl)oxy)phenyl)urea] | 50 to 75% | ≥ 5 µM
CCOC(=O)Nc1cc(Oc2ccc(NC(=O)Nc3cc(C(C)(C)C)nn3-c3ccccc3)c3ccccc23)ccn1 [(da), ethyl (4-((4-(3-(3-(tert-butyl)-1-phenyl-1 H-pyrazol-5-yl)ureido)naphthalen-1-yl)oxy)pyridin-2-yl)carbamate] | ≥ 75% | < 0.5 µM
CC(C)(C)c1cc(NC(=O)Nc2ccc(Oc3ccnc4[nH]c(=O)cnc34)cn2)n(-c2ccccc2)n1 [(u), 1-(3-(tert-butyl)-1-phenyl-1 H-pyrazol-5-yl)-3-(5-((3-oxo-3,4-dihydropyrido[2,3-b]pyrazin-8-yl)oxy)pyridin-2-yl)urea] | 25 to 50% | 1 to 5 µM
CSc1cc(Oc2ccnc(NC(=O)OCc3ccccc3)c2)ccc1NC(=O)Nc1cc(C(C)(C)C)nn1-c1ccccc1 [(cx), benzyl (4-(4-(3-(3-(tert-butyl)-1-phenyl-1H-pyrazol-5-yl)ureido)-3-(methylthio)phenoxy)pyridin-2-yl)carbamate] | ≥ 75% | 0.5 to 1 µM
